The source made the active and inactive calls. The calls are words filed in the database; no cut-off is given here.
What was measured:
Histone deacetylase 1 = Histone deacetylase 1 (Homo sapiens, UniProt Q13547); assay: Inhibition of full length human C-terminal FLAG/His-tagged KDAC1 expressed in baculovirus expression system at 30 uM using substrate A after 60 mins by microfluidic assay relative to control; settings: 1 h, 30 µM
[1] = target: Histone deacetylase 3/Nuclear receptor corepressor 2 (HDAC3/NCoR2) (Homo sapiens, UniProt O15379+Q9Y618); assay: (§1) Inhibition of full length human C-terminal His-tagged KDAC3/N-terminal GST-tagged human NCOR2 (395 to 489 residues) expressed in baculovirus expression system at 30 uM using FITC-p53 acetylated peptide as substrate after 60 mins by microfluidic assay; settings: 1 h, 30 µM
Chain of Histone deacetylase 3/Nuclear receptor corepressor 2 (HDAC3/NCoR2) (O15379 whole entry, the tested form may be a part): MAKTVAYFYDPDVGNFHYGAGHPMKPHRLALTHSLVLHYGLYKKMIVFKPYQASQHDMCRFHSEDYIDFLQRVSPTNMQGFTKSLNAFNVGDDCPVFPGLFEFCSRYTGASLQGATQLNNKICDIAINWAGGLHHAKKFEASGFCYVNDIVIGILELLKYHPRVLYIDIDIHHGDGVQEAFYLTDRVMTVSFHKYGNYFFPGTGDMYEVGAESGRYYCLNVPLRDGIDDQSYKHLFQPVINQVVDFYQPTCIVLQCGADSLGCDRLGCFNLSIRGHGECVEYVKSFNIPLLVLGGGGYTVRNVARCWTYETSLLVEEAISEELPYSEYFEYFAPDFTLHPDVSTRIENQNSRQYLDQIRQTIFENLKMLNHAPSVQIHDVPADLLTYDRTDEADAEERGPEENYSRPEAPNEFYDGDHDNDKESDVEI
Chain of Histone deacetylase 3/Nuclear receptor corepressor 2 (HDAC3/NCoR2) (Q9Y618 whole entry, the tested form may be a part): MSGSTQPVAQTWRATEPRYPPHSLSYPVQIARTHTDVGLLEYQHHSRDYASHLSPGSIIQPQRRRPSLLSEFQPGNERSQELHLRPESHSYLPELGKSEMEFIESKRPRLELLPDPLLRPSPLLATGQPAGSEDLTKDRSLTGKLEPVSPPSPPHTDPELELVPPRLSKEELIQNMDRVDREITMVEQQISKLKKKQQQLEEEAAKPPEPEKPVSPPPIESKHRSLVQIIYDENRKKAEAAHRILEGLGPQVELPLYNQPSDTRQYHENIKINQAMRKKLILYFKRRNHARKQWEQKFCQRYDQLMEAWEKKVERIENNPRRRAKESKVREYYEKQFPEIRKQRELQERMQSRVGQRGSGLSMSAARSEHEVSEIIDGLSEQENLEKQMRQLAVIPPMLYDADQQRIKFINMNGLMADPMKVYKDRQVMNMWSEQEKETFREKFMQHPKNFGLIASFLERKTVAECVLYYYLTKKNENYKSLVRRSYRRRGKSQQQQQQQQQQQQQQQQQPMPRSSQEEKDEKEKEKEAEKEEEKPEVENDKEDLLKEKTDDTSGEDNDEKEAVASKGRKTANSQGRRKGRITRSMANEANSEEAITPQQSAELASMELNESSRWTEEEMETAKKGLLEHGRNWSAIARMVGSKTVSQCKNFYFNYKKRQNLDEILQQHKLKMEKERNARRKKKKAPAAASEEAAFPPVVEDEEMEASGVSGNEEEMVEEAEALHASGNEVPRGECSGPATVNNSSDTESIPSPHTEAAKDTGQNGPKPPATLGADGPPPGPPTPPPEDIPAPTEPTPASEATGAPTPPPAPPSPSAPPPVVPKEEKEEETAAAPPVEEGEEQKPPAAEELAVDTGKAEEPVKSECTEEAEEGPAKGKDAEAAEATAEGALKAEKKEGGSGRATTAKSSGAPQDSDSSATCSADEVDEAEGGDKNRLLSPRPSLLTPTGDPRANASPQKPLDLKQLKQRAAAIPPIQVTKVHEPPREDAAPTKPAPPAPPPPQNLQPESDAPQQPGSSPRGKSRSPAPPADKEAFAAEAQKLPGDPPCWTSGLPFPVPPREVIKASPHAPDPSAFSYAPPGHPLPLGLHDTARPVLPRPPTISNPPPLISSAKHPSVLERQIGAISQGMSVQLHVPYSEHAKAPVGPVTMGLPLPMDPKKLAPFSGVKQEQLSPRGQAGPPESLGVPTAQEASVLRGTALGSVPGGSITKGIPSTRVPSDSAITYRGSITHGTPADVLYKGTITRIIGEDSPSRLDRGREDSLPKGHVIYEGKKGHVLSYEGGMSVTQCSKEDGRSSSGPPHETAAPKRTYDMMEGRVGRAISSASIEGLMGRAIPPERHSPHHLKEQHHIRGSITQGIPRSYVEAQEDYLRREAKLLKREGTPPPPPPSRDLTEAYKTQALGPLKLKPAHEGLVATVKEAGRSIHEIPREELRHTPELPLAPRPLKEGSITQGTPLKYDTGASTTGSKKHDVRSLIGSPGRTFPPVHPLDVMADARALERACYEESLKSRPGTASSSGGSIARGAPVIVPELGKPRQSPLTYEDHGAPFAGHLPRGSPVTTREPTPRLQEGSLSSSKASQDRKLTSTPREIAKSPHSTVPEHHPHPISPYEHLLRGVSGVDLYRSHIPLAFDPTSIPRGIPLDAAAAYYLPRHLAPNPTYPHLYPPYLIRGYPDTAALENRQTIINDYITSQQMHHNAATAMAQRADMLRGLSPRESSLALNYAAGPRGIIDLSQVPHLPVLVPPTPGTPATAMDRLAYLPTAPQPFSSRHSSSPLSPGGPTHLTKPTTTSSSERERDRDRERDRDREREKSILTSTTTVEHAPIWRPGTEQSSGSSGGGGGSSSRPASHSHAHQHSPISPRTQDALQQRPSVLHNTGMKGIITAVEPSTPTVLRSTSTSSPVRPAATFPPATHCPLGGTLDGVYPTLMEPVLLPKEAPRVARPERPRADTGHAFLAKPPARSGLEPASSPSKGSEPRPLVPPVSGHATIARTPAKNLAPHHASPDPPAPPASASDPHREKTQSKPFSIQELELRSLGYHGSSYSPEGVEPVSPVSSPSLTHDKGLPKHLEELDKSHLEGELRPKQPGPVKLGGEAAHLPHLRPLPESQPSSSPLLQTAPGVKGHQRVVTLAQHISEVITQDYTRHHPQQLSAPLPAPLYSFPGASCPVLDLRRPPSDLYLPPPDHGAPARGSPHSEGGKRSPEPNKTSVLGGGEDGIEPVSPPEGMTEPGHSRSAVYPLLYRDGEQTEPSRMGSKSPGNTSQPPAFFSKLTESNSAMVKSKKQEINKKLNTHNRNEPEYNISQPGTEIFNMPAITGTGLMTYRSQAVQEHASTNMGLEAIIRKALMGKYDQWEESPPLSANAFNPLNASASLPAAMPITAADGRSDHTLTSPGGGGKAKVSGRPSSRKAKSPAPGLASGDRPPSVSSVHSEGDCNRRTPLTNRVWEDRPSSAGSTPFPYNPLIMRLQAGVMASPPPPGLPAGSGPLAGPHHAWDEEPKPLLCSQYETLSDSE

[2] = target: T1, Protein deacetylase HDAC6 (Homo sapiens, UniProt Q9UBN7); assay: (§2) Inhibition of human KDAC6 expressed in baculovirus expression system at 30 uM using FITC-Histone 4 acetylated peptide as substrate after 60 mins by microfluidic assay; settings: 1 h, 30 µM
T1 sequence (Q9UBN7 whole entry): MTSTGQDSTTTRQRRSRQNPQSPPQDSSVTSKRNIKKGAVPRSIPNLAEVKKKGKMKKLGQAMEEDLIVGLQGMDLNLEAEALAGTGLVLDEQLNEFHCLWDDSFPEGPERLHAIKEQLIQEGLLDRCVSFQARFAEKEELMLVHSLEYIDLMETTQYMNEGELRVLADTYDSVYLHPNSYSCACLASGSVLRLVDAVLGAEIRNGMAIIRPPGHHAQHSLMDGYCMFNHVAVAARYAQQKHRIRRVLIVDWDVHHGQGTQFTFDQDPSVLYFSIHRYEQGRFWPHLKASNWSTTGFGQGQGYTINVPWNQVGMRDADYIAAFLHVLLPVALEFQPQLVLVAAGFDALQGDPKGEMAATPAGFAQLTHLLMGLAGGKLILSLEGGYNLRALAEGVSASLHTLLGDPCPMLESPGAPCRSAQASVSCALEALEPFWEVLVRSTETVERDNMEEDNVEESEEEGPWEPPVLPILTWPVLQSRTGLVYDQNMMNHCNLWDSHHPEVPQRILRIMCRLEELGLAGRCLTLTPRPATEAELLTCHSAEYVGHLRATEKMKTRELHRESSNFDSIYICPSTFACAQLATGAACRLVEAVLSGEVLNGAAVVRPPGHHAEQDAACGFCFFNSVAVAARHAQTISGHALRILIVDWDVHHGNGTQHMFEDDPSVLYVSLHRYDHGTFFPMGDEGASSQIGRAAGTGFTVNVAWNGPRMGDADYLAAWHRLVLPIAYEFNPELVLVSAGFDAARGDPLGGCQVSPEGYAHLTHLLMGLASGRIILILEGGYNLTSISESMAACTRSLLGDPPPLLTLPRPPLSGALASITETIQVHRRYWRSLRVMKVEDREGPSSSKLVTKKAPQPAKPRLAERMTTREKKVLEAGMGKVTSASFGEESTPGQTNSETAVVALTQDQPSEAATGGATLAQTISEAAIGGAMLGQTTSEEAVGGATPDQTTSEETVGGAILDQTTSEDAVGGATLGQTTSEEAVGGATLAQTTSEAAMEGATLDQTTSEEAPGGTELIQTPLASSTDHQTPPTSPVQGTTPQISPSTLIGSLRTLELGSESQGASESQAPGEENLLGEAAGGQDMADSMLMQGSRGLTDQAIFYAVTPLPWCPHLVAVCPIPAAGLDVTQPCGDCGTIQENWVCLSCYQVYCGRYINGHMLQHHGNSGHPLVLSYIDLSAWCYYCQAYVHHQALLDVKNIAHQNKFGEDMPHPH

[3] = target: T2, KDAC8 (histone deacetylase 8) (Homo sapiens, UniProt Q9BY41); assay: (§3) Inhibition of full length human C-terminal His-tagged KDAC8 expressed in baculovirus expression system at 30 uM using (FAM)-labeled peptide as substrate after 60 mins by microfluidic assay relative to control; settings: probe (FAM)-labeled peptide
T2 sequence (Q9BY41 whole entry): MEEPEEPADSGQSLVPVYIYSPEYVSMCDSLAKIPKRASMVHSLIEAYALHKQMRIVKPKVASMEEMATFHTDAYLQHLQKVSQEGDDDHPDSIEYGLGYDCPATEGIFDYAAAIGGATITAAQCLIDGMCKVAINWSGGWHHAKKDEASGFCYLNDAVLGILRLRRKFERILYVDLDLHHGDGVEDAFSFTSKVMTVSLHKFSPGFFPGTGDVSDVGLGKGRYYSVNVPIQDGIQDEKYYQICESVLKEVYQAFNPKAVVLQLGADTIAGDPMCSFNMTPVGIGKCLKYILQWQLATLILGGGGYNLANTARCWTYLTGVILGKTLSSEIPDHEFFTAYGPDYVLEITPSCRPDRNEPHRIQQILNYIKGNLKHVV

[4] = target: T3, Histone deacetylase 8 (Schistosoma mansoni) (UniProt A5H660); assay: Inhibition of Schistosoma mansoni KDAC8 at 30 uM using (FAM)-labeled peptide as substrate after 60 mins by microfluidic assay
T3 sequence (whole entry): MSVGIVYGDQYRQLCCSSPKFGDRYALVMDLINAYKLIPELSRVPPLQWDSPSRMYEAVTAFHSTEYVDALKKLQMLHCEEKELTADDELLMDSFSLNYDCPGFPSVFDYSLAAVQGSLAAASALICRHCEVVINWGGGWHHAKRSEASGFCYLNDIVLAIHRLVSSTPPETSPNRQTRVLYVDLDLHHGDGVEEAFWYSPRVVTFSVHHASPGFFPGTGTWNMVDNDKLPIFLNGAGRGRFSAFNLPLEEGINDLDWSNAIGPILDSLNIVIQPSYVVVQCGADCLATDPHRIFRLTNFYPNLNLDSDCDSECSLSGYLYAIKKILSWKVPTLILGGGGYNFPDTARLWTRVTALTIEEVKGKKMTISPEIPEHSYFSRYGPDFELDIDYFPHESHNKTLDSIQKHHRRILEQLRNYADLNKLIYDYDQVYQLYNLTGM

[5] = target: KDAC3/NCOR2 (histone deacetylase 3/nuclear receptor corepressor 2 complex) (Homo sapiens, UniProt O15379); assay: as §1; settings: probe FITC-p53 acetylated peptide
Chain of KDAC3/NCOR2 (histone deacetylase 3/nuclear receptor corepressor 2 complex) (O15379 whole entry): as the sequence (O15379 whole entry, the tested form may be a part) above
Chain of KDAC3/NCOR2 (histone deacetylase 3/nuclear receptor corepressor 2 complex) (Q9Y618 whole entry, further chain): as the sequence (Q9Y618 whole entry, the tested form may be a part) above

[6] = target: T4, KDAC6 (protein deacetylase HDAC6) (Homo sapiens, UniProt Q9UBN7); assay: as §2; settings: probe FITC-Histone 4 acetylated peptide
T4 sequence (Q9UBN7 whole entry): T1 sequence (Q9UBN7 whole entry)

Histone deacetylase 8 = target: T5, Histone deacetylase 8 (Homo sapiens, UniProt Q9BY41); assay: as §3; settings: 1 h, 30 µM
T5 sequence (Q9BY41 whole entry): T2 sequence (Q9BY41 whole entry)

Chain of Histone deacetylase 1 (Q13547 whole entry, the tested form may be a part): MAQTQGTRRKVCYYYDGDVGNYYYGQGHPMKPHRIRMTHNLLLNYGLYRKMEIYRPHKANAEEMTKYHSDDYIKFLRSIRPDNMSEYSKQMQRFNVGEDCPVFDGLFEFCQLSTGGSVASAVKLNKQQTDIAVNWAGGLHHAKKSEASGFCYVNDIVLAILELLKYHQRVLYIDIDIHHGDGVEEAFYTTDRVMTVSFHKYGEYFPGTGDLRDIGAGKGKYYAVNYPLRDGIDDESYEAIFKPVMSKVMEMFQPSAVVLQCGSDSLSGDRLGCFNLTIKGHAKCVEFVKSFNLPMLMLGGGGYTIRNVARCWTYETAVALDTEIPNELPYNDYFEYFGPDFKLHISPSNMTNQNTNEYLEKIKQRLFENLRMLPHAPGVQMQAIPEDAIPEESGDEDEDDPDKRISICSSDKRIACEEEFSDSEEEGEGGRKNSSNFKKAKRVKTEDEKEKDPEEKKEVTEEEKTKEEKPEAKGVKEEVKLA

| SMILES | inhibition (INH) (Histone deacetylase 1) | inhibition (INH) [1] | inhibition (INH) [2] | inhibition at 1 h, 30 µM [3] | inhibition [4] | inhibition at 1 h, 30 µM [5] | inhibition at 1 h, 30 µM [6] | inhibition (INH) (Histone deacetylase 8) |
| --- | --- | --- | --- | --- | --- | --- | --- | --- |
| CCOC(=O)Nc1ccc2nc(N3CCCCCC3)sc2c1 | Not Active | Not Active | Not Active | 6% | 5% | – | – | – |
| CSC1=NC=C(C#N)C2=NC(c3ccc(Cl)cc3)NN12 (stereo not given) | Not Active | – | – | – | inactive | 8% | 3% | Not Active |
| Cc1cc(-n2cnc3c(O)ncnc32)ccc1N | Not Active | Not Active | Not Active | – | 1% | – | – | Not Active |
| O=C1c2ccccc2C2=C3C(O)=NN=C3CCN12 | Not Active | – | Not Active | 5% | inactive | 1% | – | – |
| Nc1ccccc1Sc1cc(Cl)nnc1Cl | Not Active | Not Active | Not Active | – | inactive | – | – | Not Active |
| O=C(OCC(O)COC(=O)c1cccnc1)c1cccnc1 | Not Active | Not Active | Not Active | – | inactive | – | – | Not Active |
| O=C(NCc1ccco1)Nc1cccc([N+](=O)[O-])c1 | Not Active | – | Not Active | 7% | 16% | 7% | – | – |
| CCOP(=O)(OCC)/C(C#N)=C/c1ccc([N+](=O)[O-])cc1 | Not Active | Not Active | Not Active | – | 2% | – | – | Not Active |
| S=C(SCc1cc(Cl)cc2c1OCOC2)N1CCSCC1 | Not Active | Not Active | Not Active | 4% | inactive | – | – | – |
| CSc1nc(O)nnc1Sc1ccccc1 | Not Active | – | – | – | inactive | 24% | 20% | Not Active |
| O=C(O)c1ccccc1C(=O)Nc1ccccc1[N+](=O)[O-] | Not Active | Not Active | Not Active | – | 6% | – | – | Not Active |
| CCOC(=O)c1cc2c(OC)c(OC)ccc2c2ncc(C#N)c(O)c12 | Not Active | – | Not Active | 15% | inactive | 2% | – | – |
| Clc1ccc(Nc2nnc(-c3ccc4c(c3)OCO4)o2)cc1 | Not Active | Not Active | Not Active | – | 10% | – | – | Not Active |
| Cc1cc(C)n(C(=N)NC(=O)c2ccc([N+](=O)[O-])cc2)n1 | Not Active | Not Active | Not Active | 4% | 2% | – | – | – |
| CCOC(=O)CSc1nc2nc(Cl)c(Cl)[nH]c-2n1 | Not Active | – | – | – | inactive | 9% | 21% | Not Active |
| Cc1c(COC(=O)N(C)C)c(COC(=O)NC(C)C)c2n1CS(=O)(=O)C2 | Not Active | – | Not Active | 7% | inactive | 3% | – | – |
| CC(C)NCC1CCc2cc(CO)c([N+](=O)[O-])cc2N1 (stereo not given) [OXAMNIQUINE] | Not Active | Not Active | Not Active | – | inactive | – | – | Not Active |
| O=C1CSC(=S)N1/N=C/c1c[nH]c2ccc(Br)cc12 | Not Active | – | – | – | inactive | 10% | 18% | Not Active |
| Cc1cc(NC(=O)Nc2cc(F)ccc2F)no1 | Not Active | Not Active | Not Active | – | inactive | – | – | Not Active |
| CC(=O)OCCn1c([N+](=O)[O-])cnc1/C=[N+](\[O-])C1CCCCC1 | Not Active | Not Active | Not Active | – | 12% | – | – | Not Active |

Source: ChEMBL document CHEMBL4014283, “Structural insights of SmKDAC8 inhibitors: Targeting Schistosoma epigenetics through a combined structure-based 3D QSAR, in vitro and synthesis strategy” (Bioorg Med Chem, 2017)
